What was measured:
RAW264.7 [1] = assay: Antiinflammatory activity against mouse RAW264.7 cells assessed as inhibition of LPS-induced NO production at 10 uM preincubated for 1 hrs followed by LPS stimulation and measured after 24 hrs by Griess assay relative to control; assay type: functional; conditions: time 25 hrs
L02 = assay: Antiinflammatory activity against human L02 assessed as inhibition of LPS-induced NO production preincubated for 1 hrs followed by LPS stimulation and measured after 24 hrs by Griess assay relative to control; assay type: functional, cell-based
RAW264.7 [2] = assay: Cytotoxicity against mouse RAW264.7 cells at 20 uM measured after 24 hrs; assay type: cell-based; conditions: raw264.7, 24 h

| Compound | inhibition at 10 µM (RAW264.7 [1]) [%] | IC50 (L02) [µM] | Activity (RAW264.7 [2]) |
| --- | --- | --- | --- |
| COc1cc(/C=C/c2nc(NCc3ccccc3Cl)c3sccc3n2)cc(OC)c1OC | 21.9 | > 1000 | Non-Toxic |
| CCCc1nn(C)c2c(NC(C)C)nc(/C=C/c3cccnc3)nc12 | 74.2 | 574 | Non-Toxic |
| CCCc1nn(C)c2c(N3CCOCC3)nc(/C=C/c3nc(C)c(C)nc3C)nc12 | 74.2 | 370 | Non-Toxic |
| CCCc1nn(C)c2c(NCc3ccc(F)cc3)nc(/C=C/c3nc(C)c(C)nc3C)nc12 | 63.4 | > 1000 | Non-Toxic |
| C(=C\c1ccco1)/c1nc(NC2CC2)c2sccc2n1 | 33.3 | > 1000 | Non-Toxic |
| COc1cc(/C=C/c2nc(Cl)cc(NC(C)C)n2)cc(OC)c1OC | 29 | < 40 | Non-Toxic |
| CC(C)c1ccc(Nc2nc(/C=C/c3ccco3)nc3ccsc23)cc1 | 31.7 | > 1000 | Non-Toxic |
| CCCc1nn(C)c2c(NC3CC3)nc(CCc3cccnc3)nc12 | 7.29 | 564 | Non-Toxic |
| CN(c1ccccc1)c1nc(/C=C/c2ccccc2)nc2ccsc12 | 24.9 | > 1000 | Non-Toxic |
| COc1cc(/C=C/c2nccc(NC(C)C)n2)cc(OC)c1OC | 61 | < 40 | Non-Toxic |
| COc1cc(/C=C/c2nc(N(C)C)c3sccc3n2)cc(OC)c1OC | 27.2 | > 1000 | Non-Toxic |
| COc1cc(/C=C/c2nc(O)nc(NC(C)C)n2)cc(OC)c1OC | 34 | < 40 | Non-Toxic |
| COc1cc(/C=C/c2nc(O)nc(NCCc3ccc(F)cc3)n2)cc(OC)c1OC | 36.5 | 483 | Non-Toxic |
| CNc1nc(/C=C/c2cc(OC)c(OC)c(OC)c2)nc2ccsc12 | 39.5 | > 1000 | Non-Toxic |
| Brc1ccc(CNc2nc(/C=C/c3ccccc3)nc3ccsc23)cc1 | 19.5 | > 1000 | Non-Toxic |
| CCCc1nn(C)c2c(NCCc3cccc(Cl)c3)nc(/C=C/c3ccc[n+]([O-])c3)nc12 | 37.5 | 162 | Non-Toxic |

| Compound | inhibition at 10 µM (RAW264.7 [1]) [%] | IC50 (L02) [µM] | Activity (RAW264.7 [2]) |
| --- | --- | --- | --- |
| C(=C\c1nc(N2CCOCC2)c2sccc2n1)/c1ccccc1 | 34.1 | > 1000 | Non-Toxic |
| CCN1CCN(c2nc(/C=C/c3cc(OC)c(OC)c(OC)c3)nc3ccsc23)CC1 | 46.7 | > 1000 | Non-Toxic |
| CCCc1nn(C)c2c(N3CCOCC3)nc(/C=C/c3cccnc3)nc12 | 69.9 | 535 | Non-Toxic |
| CCCc1nn(C)c2c(N3CCS(=O)(=O)CC3)nc(/C=C/c3cccnc3)nc12 | 60.2 | 472 | Non-Toxic |
| C(=C\c1ccco1)/c1nc(NCc2ccccc2)c2sccc2n1 | 64.1 | > 1000 | Non-Toxic |
| COc1cc(/C=C/c2nc(N3CCN(C)CC3)c3sccc3n2)cc(OC)c1OC | 39.3 | > 1000 | Non-Toxic |
| Clc1ccc(CNc2nc(/C=C/c3ccco3)nc3ccsc23)cc1 | 13 | > 1000 | Non-Toxic |
| COc1cc(/C=C/c2nc(N3CCCC3)c3sccc3n2)cc(OC)c1OC | 33.2 | 681 | Non-Toxic |
| C(=C\c1nc(Nc2ccccc2)c2sccc2n1)/c1ccccc1 | 21 | > 1000 | Non-Toxic |
| COc1cc(/C=C/c2nc(N3CCOCC3)c3sccc3n2)cc(OC)c1OC | 12.2 | > 1000 | Non-Toxic |
| Fc1ccc(CCNc2nc(/C=C/c3ccccc3)nc3ccsc23)cc1 | 29.8 | > 1000 | Non-Toxic |
| Clc1ccccc1CNc1nc(/C=C/c2ccccc2)nc2ccsc12 | 35.2 | > 1000 | Non-Toxic |
| CCCc1nn(C)c2c(NCCc3ccccc3)nc(/C=C/c3nc(C)c(C)nc3C)nc12 | 52.7 | < 40 | Non-Toxic |
| CCCc1nn(C)c2c(N3CCOCC3)nc(CCc3cccnc3)nc12 | 27.1 | 859 | Non-Toxic |
| CCCc1nn(C)c2c(NC3CC3)nc(/C=C/c3nc(C)c(C)nc3C)nc12 | 48.4 | 706 | Non-Toxic |
| CCCc1nn(C)c2c(NCCc3ccccc3)nc(/C=C/c3ccc[n+]([O-])c3)nc12 | 72.9 | 392 | Non-Toxic |
